Test results published in ChEMBL document CHEMBL3137667, “[Drug-induced liver injury; fourteenth updated edition of the bibliographic database of liver injuries and related drugs]” (Gastroenterol Clin Biol, 2004).

Legend:
[1] = Highest frequency of moderate liver toxicity observed during clinical trials, expressed as a percentage. [column '% BIOL' in source]; details: human
[2] = human, serum
[3] = human
[4] = human; remark: listed apart in the source
[5] = Presence of at least one case with successful reintroduction. [column 'REINT' in source]; details: human
[6] = human; remark: listed apart in the source
[7] = human; remark: listed apart in the source
[8] = Times to onset, minimal and maximal, observed in the indexed observations. [column 'DELAI' in source]; details: human
[9] = human; remark: listed apart in the source
[10] = human; remark: listed apart in the source
[11] = Highest frequency of acute liver toxicity observed during clinical trials, expressed as a percentage. [column '% AIGUE' in source]; details: human
[12] = human, serum, 4383 h
[13] = human, serum; remark: listed apart in the source
[14] = human; remark: listed apart in the source
[15] = human; remark: listed apart in the source
[16] = human; remark: listed apart in the source
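Wherever Hepatotoxicity (association with vascular disease) is given: count of indexed literature references reporting vascular liver injury in humans, e.g. peliosis hepatitis, hepatic veno-occlusive disease or Budd-Chiari syndrome.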
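Wherever Hepatotoxicity (benign tumour) is given: value is a count of indexed literature references citing a benign tumour confirmed by histopathology.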
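Wherever Hepatotoxicity (choleostasis) is given: human cholestatic liver injury, shown by histopathology or by peak ALT or AST elevation over alkaline phosphatase ratio below 2, value counts indexed literature reports.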
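Wherever Hepatotoxicity (chronic liver disease) is given: chronic liver injury confirmed by histopathology or persistently raised serum aminotransferase activity beyond 6 months, value given as the count of indexed literature references.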
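Wherever Hepatotoxicity (cirrhosis) is given: value is a count of indexed literature references reporting cirrhosis confirmed by histopathology.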
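Wherever Hepatotoxicity (cytolytic) is given: human cytolytic liver injury, shown by histopathology or by a ratio above 5 of peak ALT or AST elevation to alkaline phosphatase elevation, value counts indexed references.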
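Wherever Hepatotoxicity (granulomatous hepatitis) is given: value is a count of indexed literature references reporting granulomatous liver disease confirmed by histopathology.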
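Wherever Hepatotoxicity (malignant tumour) is given: malignant tumour confirmed by histopathology, value gives the count of indexed literature references reporting it.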
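Wherever Hepatotoxicity (severe hepatitis) is given: human clinical data: severe hepatitis, meaning potentially life-threatening liver failure or clinically observed cases, the value counts how many indexed literature references report it.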
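Wherever Hepatotoxicity (steatosis) is given: steatosis confirmed by histopathology, value is the count of indexed references.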

| Compound | Hepatotoxicity (moderate) [1] [%] | Hepatotoxicity (acute) [2] | Hepatotoxicity (malignant tumour) [3] | Hepatotoxicity (choleostasis) [4] | Hepatotoxicity (successful reintroduction) [5] | Hepatotoxicity (benign tumour) [6] | Hepatotoxicity (cirrhosis) [7] | Hepatotoxicity (time to onset) [8] | Hepatotoxicity (severe hepatitis) [9] | Hepatotoxicity (granulomatous hepatitis) [10] | Hepatotoxicity (acute) [11] [%] | Hepatotoxicity (chronic liver disease) [12] | Hepatotoxicity (moderate) [13] | Hepatotoxicity (steatosis) [14] | Hepatotoxicity (association with vascular disease) [15] | Hepatotoxicity (cytolytic) [16] | other results |
| --- | --- | --- | --- | --- | --- | --- | --- | --- | --- | --- | --- | --- | --- | --- | --- | --- | --- |
| O=C(CCCN1CCC(O)(c2ccc(Br)cc2)CC1)c1ccc(F)cc1 [BROMPERIDOL] | 0 | 1 | 0 | 0 | yes | 0 | 0 | 2 weeks - 6 weeks | 0 | 0 | 0 | 0 | 0 | 0 | 0 | 0 |  |
| Cc1ncsc1CCCl [CLOMETHIAZOLE] | 0 | 3 | 0 | 1 | yes | 0 | 0 | 3 days - 40 days | 2 | 0 | 0 | 0 | 1 | 0 | 0 | 3 |  |
| COc1ccc2c3c1O[C@H]1[C@@H](O)C=C[C@H]4[C@@H](C2)N(C)CC[C@@]341 [CODEINE] |  | 3 | 0 |  | yes | 0 | 0 | < 1 hour - 1.5 hours |  |  |  | 0 | 2 | 0 | 0 |  | Hepatotoxicity (moderate) ([1]; Liver): 0%; Hepatotoxicity (choleostasis) ([4]; Liver): 0; Hepatotoxicity (severe hepatitis) ([9]; Liver): 0; Hepatotoxicity (granulomatous hepatitis) ([10]; Liver): 1; Hepatotoxicity (acute) ([11]; Liver): 0%; Hepatotoxicity (cytolytic) ([16]; Liver): 2 |
| CC(=O)Oc1ccc(C(=C2CCCCC2)c2ccc(OC(C)=O)cc2)cc1 [CYCLOFENIL] | 55.6 | 5 | 0 | 2 | yes | 0 | 0 | 1 month - 5 months | 0 | 1 | 1.3 | 0 | 8 | 0 | 1 | 3 |  |
| NCCS [CYSTEAMINE] | 0 | 1 | 0 | 0 | yes | 0 | 0 | 2 weeks - 2 years | 0 | 0 | 0 | 0 | 0 | 0 | 1 | 1 |  |
| CN(C)CC[C@@H](c1ccc(Cl)cc1)c1ccccn1 [DEXCHLORPHENIRAMINE] |  | 1 | 0 | 0 | yes | 0 | 0 | 9 days |  | 0 |  | 0 | 0 | 0 | 0 | 1 | Hepatotoxicity (moderate) ([1]; Liver): 0%; Hepatotoxicity (severe hepatitis) ([9]; Liver): 0; Hepatotoxicity (acute) ([11]; Liver): 0% |
| CC[C@H](C)[C@H]1NC(=O)[C@@H](NC(=O)[C@@H](CC(C)C)N(C)C(=O)[C@@H]2CCCN2C(=O)C(C)O)[C@@H](C)OC(=O)[C@H](Cc2ccc(OC)cc2)N(C)C(=O)[C@@H]2CCCN2C(=O)[C@H](CC(C)C)NC(=O)[C@@H](C)C(=O)[C@H](C(C)C)OC(=O)C[C@@H]1O (stereo partly drawn) [DIDEMNIN B] | 32 | 2 | 0 | 1 | yes | 0 | 0 | 1 week | 0 | 0 | 5.3 | 0 | 3 | 0 | 0 | 0 |  |
| CCCCC(CC)COC(=O)CC(C(=O)OCC(CC)CCCC)S(=O)(=O)O (stereo not drawn) [DOCUSATE] | 0 | 0 | 0 | 0 | yes | 0 | 0 | 2 days - 1 year | 0 | 0 | 0 | 1 | 1 | 0 | 0 | 0 |  |
| C=C(CC)C(=O)c1ccc(OCC(=O)O)c(Cl)c1Cl [ETHACRYNIC ACID] | 0 | 2 | 0 | 0 | yes | 0 | 0 | 2 weeks - 4 weeks | 2 | 0 | 0 | 0 | 0 | 0 | 0 | 2 |  |
| O=C(O)CCC(=O)c1ccc(-c2ccccc2)cc1 [FENBUFEN] | 25 | 5 | 0 | 2 | yes | 0 | 0 | 10 days - 2 weeks | 0 | 0 | 0 | 0 | 7 | 0 | 0 | 1 |  |
| O=C1c2ccccc2C(=O)C1c1ccc(F)cc1 [FLUINDIONE] | 0 | 7 | 0 | 1 | yes | 0 | 0 | 1 week - 3 months | 0 | 0 | 0 | 0 | 0 | 0 | 0 | 5 |  |
| CC(C(=O)O)c1ccc(-c2ccccc2)c(F)c1 (stereo not drawn) [FLURBIPROFEN] | 8.1 | 3 | 0 | 1 | yes | 0 | 0 | 1 day - 2 months | 0 | 0 | 0 | 0 | 4 | 0 | 0 | 2 |  |
| C[C@@H]1O[C@@H]1P(=O)(O)O [FOSFOMYCIN] | 23.8 | 1 | 0 | 0 | yes | 0 | 0 | 3 days - 4 days | 0 | 0 | 0 | 0 | 8 | 0 | 0 | 1 |  |
